Data published in patent US10544113B2 (priority 2016, dated 2020).
pEC50: −log10 of the molar value. Like-named read-outs stand apart in the source and are kept apart here.

Molecular target: mu-opioid receptor (MOR) (Homo sapiens (Human), UniProt P35372)
Experiment: cell-based
Settings: for AUC: AUC of [Ca2+]i fluorescence
Experimental: In an exemplary in vitro screening method for identifying antagonist-to-agonist allosteric modifiers of a MOR, cells that express a MOR are treated with a test compound and a MOR antagonist in a cellular calcium fluorescent assay and fluorescence intensity is then measured to determine whether the MOR is activated. A test compound is identified as an antagonist-to-agonist allosteric modifier of the MOR if the MOR is activated.
EC50 herein refers to the concentration of a compound that induces a response halfway between the baseline and the maximum after a specified exposure time. AUC refers to the area under the response curve, an indication of the compound's capability of activating a MOR when combined with a MOR antagonist.
Human embryonic kidney 293 (HEK-293) cells constitutively expressing MOR (HEK-MOR) and DOR (HEK-DOR) (kindly provided by Dr. Ping-Yee Law, University of Minnesota, USA) were cultured in high-glucose Dulbecco's modified Eagle's medium (DMEM, GIBCO) supplemented with 400 μg/mL G418 (Sigma), 2 mM L-glutamine and P/S/F (100 units/mL penicillin, 100 μg/mL streptomycin, 10% fetal bovine serum). Chinese hamster ovary (CHO)-K1 cells, stably expressing hMOR and Gα15 (CHO-K1/MOR/Gα15), were cultured in F12 medium (GIBCO) supplemented with 10 μg/mL Hygromycin B (Invivogen), 20 μg/mL Zeocin (Invivogen) P/S/F (100 units/mL penicillin, 100 μg/mL streptomycin, 10% fetal bovine serum). The cultures were incubated at 37° C. in a humidified 5% CO2 incubator.
One day before the assay, CORNING® black with clear flat bottom 96-well assay plates were coated with a 0.1 mg/mL Poly-L-Lysine solution. CHO-K1/MOR/Gα15 cells were suspended in the F12 medium and plated at a density of ˜8×10^4 cells/well in 200 μL medium. Cells were incubated in a humidified atmosphere of 10% CO2 at 37° C. overnight so as to reach an 80-90% confluent cell monolayer before assay. At the day of assay, 150 μL medium/well was removed from plate. To each well, 50 μL FLIPR® calcium assay reagent dissolved in 1× assay buffer (HBSS: KCl 5 mM, KH2PO4 0.3 mM, NaCl 138 mM, NaHCO3 4 mM, Na2HPO4 0.3 mM, d-glucose 5.6 mM, with additional 20 mM HEPES and 13 mM CaCl2, pH 7.4), with 2.5 mM probenecid was added and the plate was incubated at 37° C. for 1 h. Compounds and other reagents were dissolved in the assay buffer. Using a FlexStationIII (Molecular Devices Corp.), the [Ca^2+]i fluorescence increases after robotic injections of compounds or other reagents were monitored every 1.52 s interval with excitation wavelength at 485 nm and with emission wavelength at 525 nm. The [Ca^2+]i fluorescence was measured up to 90 s after agonist injection.
A CHO-K1 cell line, expressing a MOR and Gα15 (GenScript), was used to set up a sensitive high-throughput screen (HTS) system. In a FLIPR® calcium assay using CHO-K1/MOR/Gα15 cells, activation of MOR elicits an intracellular calcium release leading to an increase in the relative fluorescence units (FRU). […] The HTS was performed in the absence or presence of an opioid antagonist, naloxone (25 nM), to identify antagonist to agonist allosteric modifiers (AAM).
A CHO-K1 cell line, expressing a MOR and Gα15 (GenScript), was used to set up a sensitive assay system for detecting μ-opioid receptor activation. […] The assay was performed in the presence of an opioid antagonist, i.e., naloxone (25 nM), naltrexone (20 nM), samidorphan (10 nM), naloxonazine dihydrochloride (20 nM), β-funaltrexamine hydrochloride (20 nM), cyprodime hydrochloride (500 nM), or nalmefene (20 nM), in combination with compound 58, an antagonist to agonist allosteric modifier (AAM), to identify activation of the μ-opioid receptor.

[1] = CHO-K1/MOR/Gα15 cells, combined with a MOR antagonist
[2] = EC50, CHO-K1/MOR/Gα15 cells, combined with a MOR antagonist
[3] = combined with a MOR antagonist, read-out: FLIPR Ca^2+ EC50

Sequence of mu-opioid receptor (MOR) (P35372 whole entry): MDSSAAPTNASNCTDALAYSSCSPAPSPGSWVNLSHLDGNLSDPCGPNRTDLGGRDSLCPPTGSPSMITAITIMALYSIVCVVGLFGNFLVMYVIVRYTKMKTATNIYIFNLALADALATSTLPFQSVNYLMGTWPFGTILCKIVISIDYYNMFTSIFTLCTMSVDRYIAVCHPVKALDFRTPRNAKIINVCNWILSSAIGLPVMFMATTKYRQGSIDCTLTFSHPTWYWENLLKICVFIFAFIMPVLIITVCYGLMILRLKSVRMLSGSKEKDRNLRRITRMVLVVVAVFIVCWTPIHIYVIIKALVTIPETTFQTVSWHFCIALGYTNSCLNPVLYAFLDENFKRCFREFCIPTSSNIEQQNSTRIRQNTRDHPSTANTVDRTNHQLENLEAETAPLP

SMILES | AUC [1] | pEC50 [2] | pEC50 (FLIPR Ca^2+ EC50, combined with a MOR antagonist) | FLIPR Ca^2+ AUC (combined with a MOR antagonist) | pEC50 [3] | pEC50 (CHO-K1/MOR/Gα15 cells, combined with a MOR antagonist, read-out: EC50)
[2H]C1(c2ccc(F)cc2)SCC(=O)N1c1ccc(C(=O)OCC)cc1C (centres unmarked) [Example 583, Ethyl 4-[2-(4-fluorophenyl)-4-oxo-2-d1-1,3-thiazolidin-3-yl]-3-methylbenzoate] | more than 5000 | > 5.00 | 5.35 | 11275 | – | –
Cc1nnc(-c2ccc(N3C(=O)CSC3c3ccc(F)cc3)c(C)c2)o1 (centres unmarked) [Example 227] | – | – | – | 15410 | 5.26 | –
CCCCS(=O)(=O)NC(=O)c1ccc(N2C(=O)CSC2c2ccc(F)cc2)c(C)c1 (centres unmarked) [Example 163] | more than 5000 | > 5.00 | – | 11389 | 5.92 | –
Cc1c(N2C(=O)CSC2c2cccc(F)c2)c(=O)n(-c2ccccc2)n1C (centres unmarked) [Example 404] | more than 5000 | – | – | 7127 | 4.66 | –
Cc1cc(C(=O)N(C)C)ccc1N1C(=O)CSC1c1ccc(F)cc1 (centres unmarked) [Example 332] | – | > 5.00 | – | – | – | –
CCOC(=O)c1ccc(N2C(=O)CSC2c2ccc(F)cc2)c(CC)c1 (centres unmarked) [Example 156] | more than 5000 | > 5.00 | – | 11998 | 5.21 | –
Cc1cc(C(=O)NS(=O)(=O)Cc2ccccc2)ccc1N1C(=O)CSC1c1ccc(F)cc1 (centres unmarked) [Example 176] | – | – | – | 10601 | 5.70 | –
Cc1cc(C(=O)NS(=O)(=O)c2cccc3c(N(C)C)cccc23)ccc1N1C(=O)CSC1c1ccc(F)cc1 (centres unmarked) [Example 210] | more than 5000 | > 5.00 | – | 9425 | 6.15 | –
COc1ccc(N2C(=O)CSC2c2ccc(F)cc2)c(C)c1 (centres unmarked) [Example 47] | – | > 5.00 | – | – | – | –
Cc1cc(C(=O)OC(C)CNC(=O)c2ccc[n+](C)c2)ccc1N1C(=O)CSC1c1ccc(F)cc1 (centres unmarked) [Example 328] | – | – | – | – | 4.93 | –
Cc1cc(C(=O)NS(=O)(=O)c2ccc(Cl)cc2)ccc1N1C(=O)CSC1c1ccc(F)cc1 (centres unmarked) [Example 198] | more than 5000 | > 5.00 | – | 13313 | 6.30 | –
Cc1cc(C(=O)NCCc2ccccc2F)ccc1N1C(=O)CSC1c1ccc(F)cc1 (centres unmarked) [Example 383] | – | – | – | 5504 | 5.16 | –
Cc1ccc(Br)cc1N1C(=O)CSC1c1ccc(F)cc1 (centres unmarked) [Example 149] | – | > 5.00 | – | 4427 | 5.36 | –
CCOC(=O)c1ccc(S(=O)(=O)NC(=O)c2ccc(N3C(=O)CSC3c3ccc(F)cc3)c(C)c2)cc1 (centres unmarked) [Example 190] | – | – | – | 16512 | 5.62 | –
Cc1cc(C(=O)N2CCCC(O)C2)ccc1N1C(=O)CSC1c1ccc(F)cc1 (centres unmarked) [Example 353] | – | – | – | 11991 | 5.14 | –
Cc1cc(S(=O)(=O)NC(=O)c2ccc(N3C(=O)CSC3c3ccc(F)cc3)c(C)c2)c(C)cc1Cl (centres unmarked) [Example 208] | – | > 5.00 | – | – | – | –
CCN(CC)CCOC(=O)c1ccc(N2C(=O)CSC2c2ccc(F)cc2)c(C)c1 (centres unmarked) [Example 292] | – | – | – | 10056 | 5.51 | –
CCOC(=O)c1ccc(N2C(=O)CSC2c2ccc(F)cc2)c(C)c1 (centres unmarked) [Example 152] | more than 5000 | – | – | 14743 | 5.20 | > 5.00

SMILES | AUC [1] | pEC50 [2] | pEC50 (FLIPR Ca^2+ EC50, combined with a MOR antagonist) | FLIPR Ca^2+ AUC (combined with a MOR antagonist) | pEC50 [3] | pEC50 (CHO-K1/MOR/Gα15 cells, combined with a MOR antagonist, read-out: EC50)
Cc1cc(C(=O)NCc2ccc(Cl)cc2F)ccc1N1C(=O)CSC1c1ccc(F)cc1 (centres unmarked) [Example 375] | – | – | – | 4172 | 5.42 | –
CCCOC(=O)c1ccc(N2C(=O)CSC2c2ccc(F)cc2)c(C)c1 (centres unmarked) [Example 229] | – | – | – | 13237 | 5.01 | –
[2H]C1(c2ccc(F)cc2)SCC(=O)N1c1ccc(C(=O)O)cc1C (centres unmarked) [Example 581, 4-[2-(4-Fluorophenyl)-4-oxo-2-d1-1,3-thiazolidin-3-yl]-3-methylbenzoic acid] | – | – | – | 13703 | 5.48 | –
Cc1cc(C(=O)N2CCC(N)CC2)ccc1N1C(=O)CSC1c1ccc(F)cc1 (centres unmarked) [Example 357] | – | > 5.00 | – | 12663 | 5.00 | –
CC(=O)c1ccc(C)c(N2C(=O)CSC2c2ccc(F)cc2)c1 (centres unmarked) [Example 90] | – | > 5.00 | – | – | – | –
Cc1cc(C(=O)OC2(C)CC2)ccc1N1C(=O)CSC1c1ccc(F)cc1 (centres unmarked) [Example 236] | – | – | – | 13348 | 5.33 | –
Cc1cc(C(=O)OCc2cccnc2)ccc1N1C(=O)CSC1c1ccc(F)cc1 (centres unmarked) [Example 261] | more than 5000 | > 5.00 | – | 11434 | 5.54 | –
Cc1ccc(F)cc1N1C(=O)CSC1c1cccc(F)c1 (centres unmarked) [Example 113] | – | > 5.00 | – | – | – | –
Cc1cc(C(=O)N2CCC(N)C2)ccc1N1C(=O)CSC1c1ccc(F)cc1 (centres unmarked) [Example 351] | – | – | – | 11205 | 5.00 | –
Cc1cc(C(=O)OCOC(=O)OC(C)C)ccc1N1C(=O)CSC1c1ccc(F)cc1 (centres unmarked) [Example 314] | – | > 5.00 | – | – | – | –
COC(=O)c1ccc(N2C(=O)CSC2c2ccc(F)cc2)c(C)c1 (centres unmarked) [Example 59] | – | – | – | 11534 | 5.59 | –
CCCCOC(=O)c1ccc(N2C(=O)CSC2c2ccc(F)cc2)c(C)c1 (centres unmarked) [Example 234] | – | – | – | 10062 | 5.05 | –
Cc1cc(C(=O)NN)ccc1N1C(=O)CSC1c1ccc(F)cc1 (centres unmarked) [Example 220] | – | – | – | 13871 | 5.31 | –
Cc1cc(C(=O)OCCC2CC2)ccc1N1C(=O)CSC1c1ccc(F)cc1 (centres unmarked) [Example 238] | more than 5000 | – | – | 15409 | 4.91 | –
Cc1cc(C(=O)NCc2cc(F)cc(F)c2)ccc1N1C(=O)CSC1c1ccc(F)cc1 (centres unmarked) [Example 381] | more than 5000 | > 5.00 | – | 6035 | 5.09 | –
COc1cc(CNC(=O)c2ccc(N3C(=O)CSC3c3ccc(F)cc3)c(C)c2)cc(OC)c1 (centres unmarked) [Example 380] | more than 5000 | > 5.00 | – | 10013 | 5.09 | –
CCNC(=O)c1ccc(N2C(=O)CSC2c2ccc(F)cc2)c(C)c1 (centres unmarked) [Example 335] | – | > 5.00 | – | 11180 | 5.38 | –
